# Measured values as given in patent publication US9339508B2, “Use of 3-methoxy-pregnenolone for the preparation of a drug for treating a traumatic brain injury” (MAPREG, priority 2003, dated 2016).
# What was measured:
# [1] = target: purified tubulin and MAP2 (Homo sapiens, UniProt P11137); test: MAP2-induced polymerization of microtubules in vitro (optical density at 345 nm); type: biochemical
# Protocol: Purified MAP2 and tubulin are mixed in the presence of GTP at 4° C. in a spectrophotometer cuvette. Polymerization is induced by heating at 37° C. and is followed by the increase in optical density (OD) which indicates the quantity of polymers formed.
# This in vitro test measures the effect of molecules on the MAP2-induced polymerization of microtubules. This polymerization occurs when MAP2 proteins and tubulin are mixed at adequate concentrations in the presence of GTP. It is accompanied by an increase in optical density measured at 345 nm for 15 to 30 minutes with a UNICON spectrophotometer thermostated at 37° C. (FIG. 1).
# Activity is measured by the increase in optical density at 345 nm of a mixture of purified tubulin and MAP2, incubated at 37° C. in the presence of GTP.
# PC12 cells = test: Neuritic growth / sprouting of PC12 cells in the presence of NGF; type: cell-based, rat; conditions: 30 μM; for Neuritic sprouting: 3 days, NGF 10 ng/ml, relative to PREG
# Protocol: Each molecule was tested in three culture wells. Measurements were taken for 200 cells per well using Scion Image software.
# Neurite (neurite) length was measured for 200 cells per well after 2, 5, and 8 days of culture.
# To rest the effect of selected molecules on neuritic growth, we first used the PC12 line, which has long been employed in neurobiological research. In the presence of NOF (nerve growth factor), the cells of this line, which arise from a rat pheochromocytoma, form neuritic extensions containing MAP-associated microtubules.
# Stimulation of neuritic sprouting is conducted on PC12 cells differentiated in the presence of NGF (10 ng/ml) and the steroid being tested (30 μM) for 3 days. For each condition, the average length of the longest 200 neurites in each cell is measured simultaneously for 3 cultures.
# PC12 cell line = test: Cellular toxicity on the PC12 cell line; type: cell-based, rat; conditions: concentrations as high as solubility limits
# Protocol: Cellular toxicity tests are carried out routinely on the PC12 cell line.
# [2] = system: transgenic mice expressing the longest isoform of human tau protein; test: RotaRod motor incoordination in transgenic tau mice; type: in vivo, mouse; conditions: subcutaneous implant releasing 0.38 mg per day for 90 days
# Excerpt: FIG. 8: Effect of molecule 43B on the motor incoordination of transgenic mice expressing the longest isoform of human tau protein in their neurons. […] The maximum speed of rotation of the RotaRod drum before the […] falls is a measurement of motor coordination (higher values correspond to a better treatment effect).
# In order to evaluate the therapeutic potential of 433 to treat Alzheimer-type neurodegenerative diseases, a homozygous transgenic line of mice, such as described by Götz (EMBO J. 1995; 14(7):1304-13), can be used.
# These mice express the longest human tau protein isoform. They present symptoms of neurological dysfunction expressed as muscular weakness and a reduction in motor coordination which correlate histologically with the appearance of abnormal neurites and hyperphosphorylated tau proteins as is seen in Alzheimer's disease. This pathological phosphorylation decreases the affinity of tau for microtubules and favors its aggregation.
# A breeding program was undertaken at Bicêtre and genotyping made it possible to select mice homozygous for the transgene. […] The implants released 0.38 mg of steroid per day for 90 days. The progression of motor incoordination was followed by repeated RotaRod tests.
# [3] = system: α-tubulin in rat hippocampus; test: Microtubule dynamics in rat hippocampus (Tyr/Glu-Tub ratio, Acet-Tub); type: in vivo; conditions: 10 mg/kg subcutaneously, single administration
# Excerpt: Mean±SEM, n=6 per group. **P<0.01, *P<0.5 vs sesame oil.
# The effects produced by neurosteroids were compared with those produced by acute administration of the antidepressant drug fluoxetine (selective serotonin reuptake inhibitor SSRI).
# Neurosteroids and 3-Methoxy-PREG (43B) Levels
# Sprague Dawley rats = test: Forced swimming test (FST); type: in vivo, rat; conditions: 10 mg/kg subcutaneously, 24, 5, 1 h before testing
# Protocol: Drugs were administered following the traditional dosing regimen used in the FST consisting of three injections: 24, 5, 1 h before testing.
# The FET is currently the most widely used animal model for assessing depression related behavior and antidepressant drug activity in rodents (Cryan et al., Neubiorev. 2005). Rats are placed in an inescapable cylinder of water where they develop an immobile posture believed to reflect a “depressive”-like state. The Lime rats spend immobile is decreased by drugs exerting antidepressant activity.
# Additional behaviors can be detected in the FST; namely, climbing and swimming. It has been shown that swimming behavior is sensitive to SSRIs such as fluoxetine whereas climbing is sensitive to norepinephrine re-uptake inhibitors (NRI) such as desipramine.
# [4] = target: T1, human progesterone receptor (PR) (Homo sapiens, UniProt P06401); test: Test of progesterone receptor agonist activity (luciferase transactivation, HEK293T); type: cell-based; conditions: 24 hours, increasing amounts
# T1 construct: expressed in transfected cells; host or cells: HEK293T cells
# T1 sequence (P06401 1-933): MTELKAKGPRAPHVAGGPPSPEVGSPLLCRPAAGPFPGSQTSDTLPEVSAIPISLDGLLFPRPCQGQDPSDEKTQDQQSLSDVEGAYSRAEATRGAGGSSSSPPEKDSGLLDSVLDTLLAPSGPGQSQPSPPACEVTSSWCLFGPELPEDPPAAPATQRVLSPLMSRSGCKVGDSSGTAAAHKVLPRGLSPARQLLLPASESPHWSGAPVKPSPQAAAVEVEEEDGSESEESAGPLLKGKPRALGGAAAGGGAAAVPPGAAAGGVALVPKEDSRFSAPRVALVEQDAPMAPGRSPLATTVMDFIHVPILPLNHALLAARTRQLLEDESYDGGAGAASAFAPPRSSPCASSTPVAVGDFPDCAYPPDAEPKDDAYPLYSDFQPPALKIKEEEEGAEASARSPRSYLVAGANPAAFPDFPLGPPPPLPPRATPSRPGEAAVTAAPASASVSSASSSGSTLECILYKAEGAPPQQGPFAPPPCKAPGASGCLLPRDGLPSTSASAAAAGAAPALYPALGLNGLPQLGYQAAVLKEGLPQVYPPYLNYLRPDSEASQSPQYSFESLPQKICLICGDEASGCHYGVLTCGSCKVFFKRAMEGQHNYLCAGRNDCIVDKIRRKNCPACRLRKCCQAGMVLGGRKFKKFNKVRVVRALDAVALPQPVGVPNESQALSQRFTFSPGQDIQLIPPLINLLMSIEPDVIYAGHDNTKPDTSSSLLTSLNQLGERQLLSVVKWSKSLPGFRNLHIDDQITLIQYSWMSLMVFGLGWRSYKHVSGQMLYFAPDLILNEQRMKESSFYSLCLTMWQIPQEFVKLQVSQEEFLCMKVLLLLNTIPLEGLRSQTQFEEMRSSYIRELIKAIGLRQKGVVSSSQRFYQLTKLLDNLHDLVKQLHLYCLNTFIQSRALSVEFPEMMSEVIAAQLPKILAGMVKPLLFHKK
# Protocol: (§1) The main experimental setting used is the following: HEK293T cells were transiently transfected, using calcium phosphate precipitation technology, with expression receptors pSG5hPR (which permits expression of human progesterone receptor (PR)), pFC31-luc (contains the luciferase gene under the control of the MTV promoter, which is in turn activated by binding of a progestin to progesterone receptor) and pcbetagal (which permits expression of betagalactosidase), and cultured during 24 hours with increasing amounts of various compositions: • 1. […] Test of progesterone receptor […] activity: transfected cells were cultured with progesterone (1 nM) and increasing amounts of RU486 (a well-known progesterone receptor antagonist) or 3-methoxy-pregnenolone. • With this setting, a compound with progesterone receptor antagonist activity competes with progesterone for the occupation of progesterone receptor and results in a progressive loss of transactivation activity when the amount of this compound is increased compared to progesterone. Results
# [5] = target: T1, human progesterone receptor (PR); test: Test of progesterone receptor antagonist activity (luciferase transactivation, HEK293T); type: cell-based; conditions: with progesterone 1 nM, increasing amounts
# Protocol: as §1
# [6] = 40 μM, compared to solvent alone
# Chain of purified tubulin and MAP2 (P11137 whole entry): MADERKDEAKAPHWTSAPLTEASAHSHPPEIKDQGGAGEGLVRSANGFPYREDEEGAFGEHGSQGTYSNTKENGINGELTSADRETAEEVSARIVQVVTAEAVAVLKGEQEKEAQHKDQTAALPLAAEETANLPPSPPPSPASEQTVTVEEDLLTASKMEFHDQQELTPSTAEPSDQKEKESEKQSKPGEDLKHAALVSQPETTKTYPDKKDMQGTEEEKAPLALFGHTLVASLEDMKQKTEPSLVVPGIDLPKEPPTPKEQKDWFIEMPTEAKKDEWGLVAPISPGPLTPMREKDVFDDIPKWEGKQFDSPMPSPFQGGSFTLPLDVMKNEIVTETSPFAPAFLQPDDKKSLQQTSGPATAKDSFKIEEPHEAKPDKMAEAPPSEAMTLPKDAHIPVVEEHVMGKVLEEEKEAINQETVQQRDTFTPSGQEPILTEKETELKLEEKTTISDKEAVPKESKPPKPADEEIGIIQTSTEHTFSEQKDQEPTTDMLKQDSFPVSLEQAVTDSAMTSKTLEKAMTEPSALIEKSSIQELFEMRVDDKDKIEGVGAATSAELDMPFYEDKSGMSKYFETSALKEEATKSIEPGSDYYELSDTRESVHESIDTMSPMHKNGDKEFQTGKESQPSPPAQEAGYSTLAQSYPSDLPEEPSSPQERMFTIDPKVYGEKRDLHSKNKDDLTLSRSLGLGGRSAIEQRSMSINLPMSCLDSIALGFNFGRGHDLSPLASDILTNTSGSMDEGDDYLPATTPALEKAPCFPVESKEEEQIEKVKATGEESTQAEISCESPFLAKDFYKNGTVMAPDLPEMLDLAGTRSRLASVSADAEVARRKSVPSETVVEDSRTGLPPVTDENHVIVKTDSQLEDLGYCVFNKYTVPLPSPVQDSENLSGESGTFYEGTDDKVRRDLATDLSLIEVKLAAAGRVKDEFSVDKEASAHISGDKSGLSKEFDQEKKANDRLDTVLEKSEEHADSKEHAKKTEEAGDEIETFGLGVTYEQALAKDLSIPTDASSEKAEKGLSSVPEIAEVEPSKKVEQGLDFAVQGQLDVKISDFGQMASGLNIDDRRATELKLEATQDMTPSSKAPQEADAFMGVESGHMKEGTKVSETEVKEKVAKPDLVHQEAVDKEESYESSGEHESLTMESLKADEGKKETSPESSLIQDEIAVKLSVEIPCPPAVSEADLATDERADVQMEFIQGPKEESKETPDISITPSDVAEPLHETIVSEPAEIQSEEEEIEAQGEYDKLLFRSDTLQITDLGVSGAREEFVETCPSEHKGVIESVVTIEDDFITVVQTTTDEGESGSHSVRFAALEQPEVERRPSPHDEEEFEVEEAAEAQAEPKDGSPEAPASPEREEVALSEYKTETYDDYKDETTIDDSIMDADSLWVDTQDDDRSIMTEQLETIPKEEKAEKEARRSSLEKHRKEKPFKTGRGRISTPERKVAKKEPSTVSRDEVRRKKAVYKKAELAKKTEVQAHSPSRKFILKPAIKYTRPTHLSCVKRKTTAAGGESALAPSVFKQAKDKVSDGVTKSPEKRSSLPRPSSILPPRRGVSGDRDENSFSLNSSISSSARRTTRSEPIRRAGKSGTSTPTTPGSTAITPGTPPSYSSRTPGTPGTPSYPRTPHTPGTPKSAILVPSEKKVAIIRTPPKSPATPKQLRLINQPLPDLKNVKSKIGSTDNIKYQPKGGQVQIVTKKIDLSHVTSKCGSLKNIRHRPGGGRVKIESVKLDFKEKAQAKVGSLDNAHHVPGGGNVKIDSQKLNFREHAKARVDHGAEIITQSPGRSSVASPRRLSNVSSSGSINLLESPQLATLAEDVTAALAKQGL
molecule,measurement,setting,value
"CC(=O)[C@H]1CC[C@H]2[C@@H]3CC=C4C[C@@H](O)CC[C@]4(C)[C@H]3CC[C@]12C [PREG, pregnenolone]",microtubule polymerization,[1],activates microtubule polymerization
same,Lag time of microtubule polymerization,[1]; [6],decreased
same,polymerization rate and quantity of microtubules,[1]; [6],clearly increase
same,increase in the average length of the neurites,"PC12 cells; 3 days of culture, NGF",60%
same,Neuritic sprouting,PC12 cells,++ (equal to)
same,cellular toxicity,PC12 cell line,do not demonstrate toxicity
same,motor dysfunction (RotaRod),[2],Only the 3-methoxy-PREG had a beneficial effect
same,Acet-Tub (stable acetylated α-tubulin),[3],significantly decreased
same,rat climbing behavior in the FST,Sprague Dawley rats,not changed
same,rat swimming in the FST,Sprague Dawley rats,significantly increased
CO[C@H]1CC[C@@]2(C)C(=CC[C@@H]3[C@@H]2CC[C@@]2(C)[C@H]3CC[C@@]2(C(C)=O)C(Cl)Cl)C1 [3β-methoxy-pregna-5-ene-20-one-17α-dichloromethyl],Neuritic sprouting,PC12 cells,+++
"PREG-16α,17α-epoxy",Neuritic sprouting,PC12 cells,+ (lower than)
"CC(=O)[C@H]1CC[C@H]2[C@@H]3CCC4=CC(=O)CC[C@]4(C)[C@H]3CC[C@]12C [progesterone, reference compound]",microtubule polymerization,[1],do not stimulate polymerization
same,progesterone receptor agonist activity (transactivation),[4],permits a transactivation activity leading to the expression of luciferase
CNCCC(Oc1ccc(C(F)(F)F)cc1)c1ccccc1 (centres unmarked) [fluoxetine],Acet-Tub (stable acetylated α-tubulin),[3],tendency to increase
same,Tyr/Glu-Tub ratio,[3]; 3 h,did not change
"CC(=O)[C@@]12C[C@@H]1C[C@H]1[C@@H]3CC=C4C[C@@H](O)CC[C@]4(C)[C@H]3CC[C@@]12C [PREG-16α,17α-methylene]",Neuritic sprouting,PC12 cells,+ (lower than)
CO[C@H]1CC[C@@]2(C)C(CCC3C2CC[C@@]2(C)C3CC[C@@H]2[C@@H](C)O)C1 (stereo partly drawn) [3β-methoxy-5α-pregnane-20β-ol],Neuritic sprouting,PC12 cells,++ (equal to)
"CC(=O)O[C@H](C)[C@H]1CC[C@H]2[C@@H]3CC=C4C[C@@H](O)CC[C@]4(C)[C@H]3CC[C@]12C [Pregna-5-ene-3β,20β-diol-20-acetate]",Neuritic sprouting,PC12 cells,++ (equal to)
CC#C[C@]1(O)CC[C@H]2[C@@H]3CCC4=CC(=O)CCC4=C3[C@@H](c3ccc(N(C)C)cc3)C[C@@]21C [RU486],progesterone receptor antagonist activity,[5],very high antagonist activity
CO[C@H]1CC[C@@]2(C)[C@@H](CC[C@@H]3[C@@H]2CC[C@]2(C)[C@@H](C(C)=O)CC[C@@H]32)C1 [3β-methoxy-5α-pregnane-20-one],Neuritic sprouting,PC12 cells,+++
CC(=O)[C@H]1[C@H](C)C[C@H]2[C@@H]3CC=C4C[C@@H](O)CC[C@]4(C)[C@H]3CC[C@@]21C [PREG-16α-methyl],Neuritic sprouting,PC12 cells,++ (equal to)
pregnenolone sulfate,microtubule polymerization,[1],do not stimulate polymerization
